In the OligoGym collection:
After the bases stand the sugars from the 5' end (letter, count) and the backbone: PS all phosphorothioate, else s phosphorothioate and o phosphodiester by linkage. Methylation of C is not given here. e = 2'-O-(2-methoxyethyl) (MOE); k = constrained ethyl (cEt); d = 2'-deoxy (DNA); m = 2'-O-methyl

Molecular target: HSD17B13
Conditions: ASO, HepaRG

Sequence	target mRNA inhibition (1 µM) [%]	further results
AAAAAGCTTATCGAGT (sugars k3 d10 k3, PS)	8	–
AAAAGGTTATCATGGG (sugars k3 d10 k3, PS)	49	–
AAAATAGAGTCGGTCA (sugars k3 d9 k3 e1, PS)	65	–
AAAATAGAGTCGGTCA (sugars k3 d10 k3, PS)	71	target mRNA inhibition (0.02 µM): 28%; target mRNA inhibition (0.078 µM): 27%; target mRNA inhibition (0.313 µM): 51%; target mRNA inhibition (1.25 µM): 69%; target mRNA inhibition (5 µM): 91%
AAAATGTCCTAGGATG (sugars k3 d10 k3, PS)	0	–
AAACAAGAGGATAGTC (sugars k3 d1 m1 d8 k3, PS)	53	–
AAACATGGATGTTAGG (sugars k3 d10 k3, PS)	56	–
AAACTAGTGGTAATGG (sugars k3 d10 k3, PS)	47	–
AAACTTCACCAACGAC (sugars k3 d10 k3, PS)	27	–
AAAGACTTTGAGACTC (sugars k3 d9 k3 e1, PS)	67	–
AAAGACTTTGAGACTC (sugars kkdddddddddkekek, PS)	45	–
AAAGATCTGGCCAGTT (sugars k3 d10 k3, PS)	3	–
AAAGATGTACACTGAC (sugars k3 d10 k3, PS)	57	–
AAAGTCAGTATCCCCT (sugars k3 d10 k3, PS)	77	target mRNA inhibition (0.02 µM): 7%; target mRNA inhibition (0.078 µM): 21%; target mRNA inhibition (0.313 µM): 40%; target mRNA inhibition (1.25 µM): 79%; target mRNA inhibition (5 µM): 82%
AAAGTTAATAGGACTA (sugars k3 d10 k3, PS)	12	–
AAATAGAGTCGGTCAC (sugars k3 d10 k3, PS)	59	–
AAATATAGAGGGTCCA (sugars k3 d10 k3, PS)	0	–
AAATATGTCCAGGTTG (sugars k3 d9 k3 e1, PS)	74	target mRNA inhibition (0.02 µM): 3%; target mRNA inhibition (0.078 µM): 0%; target mRNA inhibition (0.313 µM): 16%; target mRNA inhibition (1.25 µM): 60%; target mRNA inhibition (5 µM): 88%
AAATATGTCCAGGTTG (sugars k3 d10 k3, PS)	68	–
AAATGTCTTGGTAATC (sugars k3 d10 k3, PS)	30	–
AAATTACTCCGTTCTG (sugars k3 d10 k3, PS)	28	–
AAATTAGAGGCCCAGG (sugars k3 d10 k3, PS)	43	–
AACAAGAGGATAGTCC (sugars k3 d10 k3, PS)	54	–
AACAAGATTAGTCTTG (sugars k3 d10 k3, PS)	40	–
AACAATCTCCCCAGCC (sugars k3 d10 k3, PS)	59	–

Sequence	target mRNA inhibition (1 µM) [%]	further results
AACAGTCTTAAACCTT (sugars k3 d10 k3, PS)	82	–
AACAGTCTTAAACCTT (sugars kkdddddddddkekek, PS)	37	–
AACATCTCTGGGACCA (sugars k3 d10 k3, PS)	74	target mRNA inhibition (0.02 µM): 0%; target mRNA inhibition (0.078 µM): 11%; target mRNA inhibition (0.313 µM): 44%; target mRNA inhibition (1.25 µM): 64%; target mRNA inhibition (5 µM): 81%
AACCAATTATATGAGG (sugars k3 d10 k3, PS)	38	–
AACCTTGAATGAGTGG (sugars k3 d10 k3, PS)	50	–
AACTAGAACTCCCAAC (sugars k3 d10 k3, PS)	0	–
AACTGAGCTAGACAAT (sugars k3 d10 k3, PS)	44	–
AAGAATAGGAGAGTCT (sugars k3 d10 k3, PS)	70	–
AAGACATTCTAGCCTG (sugars k3 d10 k3, PS)	63	–
AAGAGCCAAACTGCTA (sugars k3 d10 k3, PS)	63	target mRNA inhibition (0.02 µM): 0%; target mRNA inhibition (0.078 µM): 0%; target mRNA inhibition (0.313 µM): 11%; target mRNA inhibition (1.25 µM): 46%; target mRNA inhibition (5 µM): 66%
AAGAGTCAGTATCCTC (sugars k3 d1 m1 d8 k3, PS)	55	–
AAGAGTCAGTATCCTC (sugars k3 d9 k3 e1, PS)	67	–
AAGATCGGCTGGATAT (sugars k3 d10 k3, PS)	1	–
AAGCTTATCGAGTTTA (sugars k3 d10 k3, PS)	26	–
AAGGAAGAGGCTAGGG (sugars k3 d10 k3, PS)	57	–
AAGGAGCCAGTTATGA (sugars k3 d10 k3, PS)	57	–
AAGGAGTATGACAACT (sugars k3 d10 k3, PS)	28	–
AAGGCCTGAAGTTCTG (sugars k3 d10 k3, PS)	5	–
AAGTATTCCATCTATC (sugars k3 d10 k3, PS)	52	–
AAGTTAGCCCCCAGGA (sugars kkdddddddddkekek, PS)	12	–
AAGTTAGTATAGTTAT (sugars k3 d10 k3, PS)	20	–
AAGTTATTATCCCCAC (sugars k3 d10 k3, PS)	60	–
AAGTTCTGATGTCAGA (sugars k3 d10 k3, PS)	7	–
AATAACTGTTCTCCCC (sugars k3 d10 k3, PS)	20	–
AATAATAGCTCTATTG (sugars k3 d1 m1 d8 k3, PS)	16	–

Sequence	target mRNA inhibition (1 µM) [%]	further results
AATAATAGCTCTATTG (sugars k3 d10 k3, PS)	0	–
AATAATGGGCAGAGCT (sugars k3 d10 k3, PS)	43	–
AATACAGGCCATAATC (sugars k3 d10 k3, PS)	16	–
AATAGCCAGTACAGTT (sugars k3 d9 k3 e1, PS)	61	–
AATATAGCCCTTTCCC (sugars k3 d10 k3, PS)	44	–
AATATCCCACAGAACC (sugars k3 d10 k3, PS)	60	–
AATATGGGATGAGGTA (sugars k3 d10 k3, PS)	53	–
AATATTGAGGCACTGG (sugars kkdddddddddkekek, PS)	29	–
AATGCTACTTGAACAG (sugars k3 d9 k3 e1, PS)	50	–
AATGTATCTTATAAGA (sugars k3 d10 k3, PS)	10	–
AATGTCTTGGTAATCT (sugars k3 d10 k3, PS)	20	–
AATTAAGATGTCCAGG (sugars k3 d10 k3, PS)	13	–
AATTCACCTTGACTAA (sugars k3 d10 k3, PS)	9	–
AATTCATAAGTAGTCT (sugars k3 d10 k3, PS)	28	–
AATTGATACACCAATG (sugars k3 d1 m1 d8 k3, PS)	40	–
AATTGATACACCAATG (sugars k3 d9 k3 e1, PS)	53	–
AATTGATACACCAATG (sugars k3 d10 k3, PS)	55	–
AATTTTCAGATCCCGT (sugars k3 d10 k3, PS)	74	–
ACAAGTAAGGTAAAGT (sugars k3 d10 k3, PS)	38	–
ACAATACAGGATAGAG (sugars k3 d10 k3, PS)	23	–
ACAAUATGGGATGAGG (sugars k3 d1 m1 d8 k3, PS)	70	target mRNA inhibition (0.02 µM): 0%; target mRNA inhibition (0.078 µM): 2%; target mRNA inhibition (0.313 µM): 0%; target mRNA inhibition (1.25 µM): 48%; target mRNA inhibition (5 µM): 59%
ACACTAATGAATCATG (sugars k3 d10 k3, PS)	7	–
ACAGACTGTTGAGCTC (sugars k3 d10 k3, PS)	53	–
ACAGATTGGAATGCTA (sugars k3 d1 m1 d8 k3, PS)	70	–
ACAGATTGGAATGCTA (sugars k3 d9 k3 e1, PS)	68	target mRNA inhibition (0.02 µM): 18%; target mRNA inhibition (0.078 µM): 21%; target mRNA inhibition (0.313 µM): 38%; target mRNA inhibition (1.25 µM): 62%; target mRNA inhibition (5 µM): 76%

Sequence	target mRNA inhibition (1 µM) [%]	further results
ACAGCATCAAGACATT (sugars k3 d10 k3, PS)	53	–
ACAGGATAGAGCACAT (sugars k3 d10 k3, PS)	44	–
ACAGTAAAATTATGCC (sugars kkdddddddddkekek, PS)	28	–
ACAGUAAAATTATGCC (sugars k3 d1 m1 d8 k3, PS)	24	–
ACATACCACTCTTCTC (sugars k3 d10 k3, PS)	35	–
ACATAGGCTTAGTGTA (sugars k3 d10 k3, PS)	0	–
ACATUGCAGTTATTAG (sugars k3 d1 m1 d8 k3, PS)	26	–
ACCAAACTTCCAGCAG (sugars k3 d9 k3 e1, PS)	36	–
ACCAAGAGGGTTTTTA (sugars k3 d10 k3, PS)	7	–
ACCCTTAACAAACCTC (sugars k3 d10 k3, PS)	36	–
ACCGCGCTTATTAATA (sugars k3 d10 k3, PS)	4	–
ACCTAATAACTACATG (sugars k3 d10 k3, PS)	0	–
ACCTCTAAGTTAGCCC (sugars k3 d10 k3, PS)	28	–
ACGAAGCCTGAATGCC (sugars k3 d10 k3, PS)	52	–
ACGACTCCAAGTAGGA (sugars k3 d10 k3, PS)	24	–
ACGACTTCATCTGTCT (sugars k3 d10 k3, PS)	8	–
ACGATGTGGCCATGAT (sugars k3 d10 k3, PS)	52	–
ACGGTGATCAAATGTA (sugars k3 d9 k3 e1, PS)	41	–
ACGGUGATCAAATGTA (sugars k3 d1 m1 d8 k3, PS)	18	–
ACTAACCAATTATATG (sugars k3 d10 k3, PS)	6	–
ACTATCAGAACAGTTC (sugars k3 d10 k3, PS)	62	–
ACTCCAAGTAGGAGTA (sugars k3 d10 k3, PS)	0	–
ACTCTATAATAAGGTA (sugars k3 d10 k3, PS)	42	–
